The source made the active and inactive calls.
Legend:
Jurkat [1] = test: blockers of NF-kB activation in T cells – Jurkat, luciferase reporter, luminescence, B- and T-cell, dose response (AID 489004); assay type: functional, cell-based; conditions: Homo sapiens;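 further: NF-kB luciferase reporter Jurkat cells stimulated with PMA plus ionomycin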
[2] = HEK-293T viability loss, compound-treated – cell-based, uHTS hits, cytotoxicity control for B/T-cell NF-kB inhibitor project, dose response (AID 489019); assay type: functional;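 further: IC50 reflects cytotoxicity as loss of cell viability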
[3] = molecular target: T1, COUP transcription factor 2 (Homo sapiens, UniProt P24468); test: Luminescence-based cell-based high throughput dose response assay to identify inhibitors of COUP-TFII (NR2F2).; assay type: functional;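 further: HEK293 cells transiently cotransfected with COUP-TFII expression vector and reporter; luciferase reporter luminescence driven by COUP-TFII from the pX2-168 reporter plasmid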
T1 sequence (P24468 whole entry): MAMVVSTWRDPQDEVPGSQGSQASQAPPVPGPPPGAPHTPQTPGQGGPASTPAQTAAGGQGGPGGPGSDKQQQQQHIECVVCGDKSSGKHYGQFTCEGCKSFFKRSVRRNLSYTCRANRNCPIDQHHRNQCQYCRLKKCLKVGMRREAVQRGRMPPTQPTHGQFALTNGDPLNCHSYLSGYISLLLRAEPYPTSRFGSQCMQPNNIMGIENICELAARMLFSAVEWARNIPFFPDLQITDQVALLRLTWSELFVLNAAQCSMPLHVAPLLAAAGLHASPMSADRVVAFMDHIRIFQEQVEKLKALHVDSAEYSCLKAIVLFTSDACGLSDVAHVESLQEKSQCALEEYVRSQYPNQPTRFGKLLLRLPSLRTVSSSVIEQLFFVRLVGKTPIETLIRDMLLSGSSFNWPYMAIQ

[4] = NIH-3T3 fibroblast cytotoxicity, dose response, cytotoxicity control, cell-based, fluorescence, Alamar Blue, secondary assay (AID 2327); assay type: functional;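 further: NIH-3T3 mouse fibroblasts cultured with fluconazole at 8 µg/mL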
[5] = fluconazole-exposed Candida albicans growth modulators – fluorescence, retest, confirmation (AID 2467); assay type: functional, cell-based
[6] = molecular target: T2, Serine/threonine-protein phosphatase (Candida dubliniensis (strain CD36 / CBS 7987 / NCPF 3949 / NRRLY-17841) (Yeast), UniProt B9W6M3); test: blockers of CaCl2-induced CDRE-lacZ signaling – S. cerevisiae, luminescence, secondary, dose response (AID 2388); assay type: functional, cell-based;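 further: yeast reporter cells carrying a calcineurin-responsive lacZ construct stimulated with calcium chloride; luminescent beta-galactosidase reporter signal in whole cells rather than isolated phosphatase activity; potency for inhibition where a drop in reporter signal means calcineurin blockade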
T2 sequence (B9W6M3 whole entry): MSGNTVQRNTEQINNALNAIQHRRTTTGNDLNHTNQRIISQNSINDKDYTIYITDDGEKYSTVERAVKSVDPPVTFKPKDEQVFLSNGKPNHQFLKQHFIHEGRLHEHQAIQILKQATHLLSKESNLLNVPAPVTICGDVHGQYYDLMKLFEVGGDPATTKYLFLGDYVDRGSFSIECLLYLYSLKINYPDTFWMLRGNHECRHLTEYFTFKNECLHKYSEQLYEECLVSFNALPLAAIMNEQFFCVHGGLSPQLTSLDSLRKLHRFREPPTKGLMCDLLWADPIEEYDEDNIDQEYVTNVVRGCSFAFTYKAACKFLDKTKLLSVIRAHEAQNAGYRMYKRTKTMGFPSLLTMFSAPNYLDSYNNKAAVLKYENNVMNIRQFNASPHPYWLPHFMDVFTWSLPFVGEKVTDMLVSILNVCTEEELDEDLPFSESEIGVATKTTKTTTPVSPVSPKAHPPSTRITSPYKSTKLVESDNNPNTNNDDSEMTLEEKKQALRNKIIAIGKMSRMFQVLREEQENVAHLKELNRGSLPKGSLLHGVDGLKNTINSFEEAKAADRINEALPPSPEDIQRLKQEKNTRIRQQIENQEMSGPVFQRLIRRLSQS

ORF 73 = ORF 73 (Human herpesvirus 8, UniProt O40947); test: KSHV LANA DNA-binding disruption – biochemical, fluorescence polarization, cherry-picked samples, dose response (AID 504725); parameters: species or system Human gammaherpesvirus 8;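 further: fluorescence polarization of a labeled DNA duplex reporting LANA DNA binding; potency is for inhibitors that block LANA binding to the DNA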
[7] = molecular target: UDP-galactopyranose mutase (Mycobacterium tuberculosis, UniProt P9WIQ1); test: Inhibitors of Mycobacterium tuberculosis UDP-galactopyranose mutase (UGM) enzyme Measured in Biochemical System Using Plate Reader - 2105-02_Inhibitor_Dose_CherryPick_Activity. [Related pubchem assays (depositor defined):AID504439]
[8] = molecular target: ATP-dependent molecular chaperone HSP82 (Candida albicans (strain WO-1) (Yeast), UniProt C4YTQ8); test: steroid-induced GRE reporter decrease in yeast – S. cerevisiae, luminescence, Hsp90 inhibitor project, dose response (AID 2400); assay type: functional, cell-based;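 further: beta-galactosidase luminescence from glucocorticoid response element reporter as proxy for Hsp90 function; inhibitor potency where signal loss means Hsp90 inhibition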
CAAX prenyl protease 2 [9] = molecular target: CAAX prenyl protease 2 (Saccharomyces cerevisiae S288c, UniProt Q03530); assay type: biochemical
CAAX prenyl protease 1 = CAAX prenyl protease 1 (Saccharomyces cerevisiae S288c, UniProt P47154); test: yeast CAAX protease Ste24 inhibition – biochemical, S. cerevisiae, plate reader, cherry-pick, dose response (AID 488815)
Prothrombin = Prothrombin (Homo sapiens, UniProt P00734); test: Thrombin 1536 HTS Dose Response Confirmation. [Related pubchem assays: 1046 (Thrombin 1536 HTS; hits were confirmed in this assay)]; assay type: functional
CAAX prenyl protease 2 [10] = molecular target: T3, CAAX prenyl protease 2 (Homo sapiens, UniProt Q9Y256); test: inhibition of Ras-converting CAAX protease Rce1 – biochemical, yeast membranes, quenched-peptide fluorescence, cherry-pick, dose response (AID 588849)
T3 sequence (Q9Y256 whole entry): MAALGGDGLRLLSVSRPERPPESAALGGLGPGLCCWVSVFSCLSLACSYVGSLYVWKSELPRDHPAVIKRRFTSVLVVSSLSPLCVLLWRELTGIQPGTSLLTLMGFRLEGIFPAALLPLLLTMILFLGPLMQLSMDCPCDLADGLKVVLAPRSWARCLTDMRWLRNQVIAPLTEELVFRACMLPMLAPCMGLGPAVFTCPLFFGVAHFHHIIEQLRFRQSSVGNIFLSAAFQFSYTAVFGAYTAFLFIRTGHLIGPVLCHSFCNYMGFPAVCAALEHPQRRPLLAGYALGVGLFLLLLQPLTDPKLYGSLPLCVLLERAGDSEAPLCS

[11] = molecular target: T4, RNA-binding protein pos-1 (Caenorhabditis elegans, UniProt G5EF15); test: disruptors of C. elegans POS-1 RNA interaction – biochemical, fluorescence polarization, dose response (AID 1964);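 further: purified POS-1 fused to maltose binding protein made in E. coli; potency of compounds blocking POS-1 binding to fluorescent RNA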
T4 sequence (G5EF15 whole entry): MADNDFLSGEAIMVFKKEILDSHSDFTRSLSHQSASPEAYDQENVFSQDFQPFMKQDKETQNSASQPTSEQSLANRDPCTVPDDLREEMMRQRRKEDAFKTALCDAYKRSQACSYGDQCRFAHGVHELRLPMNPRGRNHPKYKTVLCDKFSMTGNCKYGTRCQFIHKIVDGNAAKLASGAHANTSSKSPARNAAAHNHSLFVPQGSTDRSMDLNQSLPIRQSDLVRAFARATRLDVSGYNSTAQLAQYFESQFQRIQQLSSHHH

[12] = molecular target: T5, Zinc finger protein mex-5 (Caenorhabditis elegans, UniProt Q9XUB2); test: potency of MEX-5 RNA-binding blockers – biochemical, C. elegans, fluorescence polarization, dose response (AID 1960)
T5 sequence (Q9XUB2 whole entry): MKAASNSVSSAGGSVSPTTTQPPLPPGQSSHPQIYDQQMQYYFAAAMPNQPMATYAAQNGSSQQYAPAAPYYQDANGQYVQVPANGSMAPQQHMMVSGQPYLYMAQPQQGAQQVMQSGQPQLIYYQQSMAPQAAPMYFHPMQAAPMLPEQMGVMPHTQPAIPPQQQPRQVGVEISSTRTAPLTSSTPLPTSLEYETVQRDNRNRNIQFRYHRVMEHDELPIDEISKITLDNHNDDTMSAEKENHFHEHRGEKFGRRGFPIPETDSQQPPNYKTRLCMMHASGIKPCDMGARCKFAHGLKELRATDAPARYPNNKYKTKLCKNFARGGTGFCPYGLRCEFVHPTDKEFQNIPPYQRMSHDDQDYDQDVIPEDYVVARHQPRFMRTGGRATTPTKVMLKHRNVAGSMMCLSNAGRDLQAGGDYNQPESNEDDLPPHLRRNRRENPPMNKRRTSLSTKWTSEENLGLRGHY

Estrogen receptor = molecular target: T6, Estrogen receptor (Homo sapiens, UniProt P03372);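 further: potency for inhibiting coactivator peptide recruitment to the receptor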
T6 sequence (P03372 whole entry): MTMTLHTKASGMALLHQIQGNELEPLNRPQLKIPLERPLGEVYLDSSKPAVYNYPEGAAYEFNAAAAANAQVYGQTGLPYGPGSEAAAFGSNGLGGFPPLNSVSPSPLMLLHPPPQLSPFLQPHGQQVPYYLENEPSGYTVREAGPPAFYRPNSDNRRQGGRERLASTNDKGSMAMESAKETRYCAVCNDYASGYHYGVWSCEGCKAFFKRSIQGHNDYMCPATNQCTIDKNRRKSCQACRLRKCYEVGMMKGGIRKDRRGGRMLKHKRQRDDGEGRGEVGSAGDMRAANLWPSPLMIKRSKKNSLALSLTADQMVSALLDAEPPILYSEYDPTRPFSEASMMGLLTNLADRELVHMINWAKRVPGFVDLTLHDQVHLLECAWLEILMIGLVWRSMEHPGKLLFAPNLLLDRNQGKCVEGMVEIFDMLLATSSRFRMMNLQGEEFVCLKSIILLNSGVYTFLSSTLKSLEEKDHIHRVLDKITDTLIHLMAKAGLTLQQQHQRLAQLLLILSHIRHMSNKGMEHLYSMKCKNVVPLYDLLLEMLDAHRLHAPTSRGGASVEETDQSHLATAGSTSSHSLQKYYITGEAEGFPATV

Estrogen receptor beta [13] = molecular target: T7, Estrogen receptor beta (Homo sapiens, UniProt Q92731);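 further: recombinant ER-beta bound to coactivator SRC1 peptide in presence of estradiol agonist; inhibitors block coactivator peptide binding and lower the FRET signal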
Estrogen receptor beta [14] = molecular target: T7, Estrogen receptor beta; test: blockers of SRC-3 recruitment to ERβ – biochemical, ELISA, streptavidin-HRP readout, orthogonal assay, confirmation (AID 1060)
Troponin, cardiac muscle = Troponin, cardiac muscle (Homo sapiens, UniProt P19429+P45379+P63316); test: Fluorescence-based biochemical high throughput dose response assay for activators of the calcium sensitivity of cardiac Regulated Thin Filaments (RTF). [Related pubchem assays (depositor defined):AID493008, AID493018, AID504382, AID504383]; assay type: protein-complex assay
[15] = luciferase reporter signal suppression in cells – H4 neuroglioma cells, luminescence, dose response (AID 1990); assay type: functional, cell-based
[16] = Luminescence Cell-Based Dose Response HTS to Identify Inhibitors of 5'UTR Stem-Loop Driven Prion Protein mRNA Translation in H4 Neuroglioblastoma Cells. [Related pubchem assays: 1827 (Project Summary), 1813 (Primary HTS)]; assay type: functional
[17] = molecular target: T8, Heat shock factor protein 1 (Mus musculus, UniProt P38532); test: decrease of HSF1-responsive luciferase luminescence – cell-based, NIH3T3, dose retest, confirmation (AID 2382); assay type: functional;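 further: NIH3T3 fibroblasts with HSF1-driven luciferase reporter stressed by proteasome inhibitor MG132; luminescence from HSF1-driven luciferase expression after 8 hours of MG132 stress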
T8 sequence (P38532 whole entry): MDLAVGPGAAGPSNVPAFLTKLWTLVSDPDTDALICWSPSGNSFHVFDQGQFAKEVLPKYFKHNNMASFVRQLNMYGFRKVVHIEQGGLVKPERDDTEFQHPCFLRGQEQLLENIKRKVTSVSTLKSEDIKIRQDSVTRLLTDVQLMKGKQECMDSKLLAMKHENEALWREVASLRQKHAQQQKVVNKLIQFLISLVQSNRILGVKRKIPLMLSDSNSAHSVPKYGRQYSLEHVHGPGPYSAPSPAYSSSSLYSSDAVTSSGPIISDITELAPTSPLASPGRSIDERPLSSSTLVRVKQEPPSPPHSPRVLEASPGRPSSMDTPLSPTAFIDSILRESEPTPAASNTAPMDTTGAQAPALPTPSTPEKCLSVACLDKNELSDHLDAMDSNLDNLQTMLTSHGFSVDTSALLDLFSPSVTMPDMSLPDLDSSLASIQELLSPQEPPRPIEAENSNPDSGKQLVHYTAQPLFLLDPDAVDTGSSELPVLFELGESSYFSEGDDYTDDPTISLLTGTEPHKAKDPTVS

[18] = alpha-synuclein stem-loop luciferase translation blockers – H4 neuroglioma cells, luminescence, confirmation (AID 1988); assay type: functional, cell-based
HEK293 [19] = test: HEK293T cell viability loss, resazurin readout – resazurin fluorescence, cytotoxicity control for NF-kB activator project, SAR follow-up (AID 493251); assay type: functional, cell-based; conditions: Homo sapiens
Jurkat [20] = test: SAR Analysis of small molecule inhibitors of T-cell specific antigen receptor-induced NF-kB activation in a Jurkat cell line using a luminescence assay - Set 2. [Related pubchem assays (depositor defined):AID435003, AID435012, AID465]; assay type: functional, cell-based; conditions: Homo sapiens
HEK293 [21] = test: SAR Analysis of small molecule inhibitors of T-cell specific antigen receptor-induced NF-kB activation in a HEK-293T cell line using a luminescence assay - Set 2. [Related pubchem assays (depositor defined):AID435003, AID435012, AID489026]; assay type: functional, cell-based; conditions: Homo sapiens

Sequence of CAAX prenyl protease 1 (P47154 whole entry): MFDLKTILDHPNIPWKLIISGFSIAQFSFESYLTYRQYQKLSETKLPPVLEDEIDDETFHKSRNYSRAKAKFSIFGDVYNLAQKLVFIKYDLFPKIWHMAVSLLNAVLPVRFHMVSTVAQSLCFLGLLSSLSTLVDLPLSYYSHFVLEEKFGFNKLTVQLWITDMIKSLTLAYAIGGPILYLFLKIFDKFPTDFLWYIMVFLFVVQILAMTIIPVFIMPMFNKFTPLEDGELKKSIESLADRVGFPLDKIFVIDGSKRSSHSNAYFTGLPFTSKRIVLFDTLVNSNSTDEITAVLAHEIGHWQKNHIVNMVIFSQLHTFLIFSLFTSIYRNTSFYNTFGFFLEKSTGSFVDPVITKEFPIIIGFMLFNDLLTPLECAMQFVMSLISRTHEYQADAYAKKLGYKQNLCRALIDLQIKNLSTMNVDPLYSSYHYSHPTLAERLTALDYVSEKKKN
T7 sequence (Q92731 whole entry): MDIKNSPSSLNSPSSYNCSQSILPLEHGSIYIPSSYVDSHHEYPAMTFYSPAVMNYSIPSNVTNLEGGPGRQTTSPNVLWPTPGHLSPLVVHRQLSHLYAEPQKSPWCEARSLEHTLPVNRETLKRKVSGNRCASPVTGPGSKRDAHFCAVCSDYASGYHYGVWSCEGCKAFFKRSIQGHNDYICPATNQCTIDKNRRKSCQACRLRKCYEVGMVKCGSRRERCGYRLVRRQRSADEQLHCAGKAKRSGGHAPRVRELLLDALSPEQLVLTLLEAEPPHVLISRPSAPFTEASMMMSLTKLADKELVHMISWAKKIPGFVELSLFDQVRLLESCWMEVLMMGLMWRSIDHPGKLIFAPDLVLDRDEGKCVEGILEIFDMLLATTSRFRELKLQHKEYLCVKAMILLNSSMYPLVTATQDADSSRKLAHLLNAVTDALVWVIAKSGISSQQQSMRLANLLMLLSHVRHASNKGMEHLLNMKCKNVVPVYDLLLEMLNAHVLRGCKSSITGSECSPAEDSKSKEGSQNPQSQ
Sequence of UDP-galactopyranose mutase (P9WIQ1 whole entry): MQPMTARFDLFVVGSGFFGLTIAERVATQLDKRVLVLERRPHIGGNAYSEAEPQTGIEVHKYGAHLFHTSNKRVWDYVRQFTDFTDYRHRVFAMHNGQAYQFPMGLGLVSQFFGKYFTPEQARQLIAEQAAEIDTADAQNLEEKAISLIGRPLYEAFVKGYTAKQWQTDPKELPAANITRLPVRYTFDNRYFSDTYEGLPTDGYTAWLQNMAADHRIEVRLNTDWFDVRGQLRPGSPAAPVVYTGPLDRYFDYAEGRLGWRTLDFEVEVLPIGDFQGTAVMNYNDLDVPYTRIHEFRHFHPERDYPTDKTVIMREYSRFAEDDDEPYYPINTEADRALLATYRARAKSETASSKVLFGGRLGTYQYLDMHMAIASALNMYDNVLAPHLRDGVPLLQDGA
Sequence of ORF 73 (O40947 whole entry): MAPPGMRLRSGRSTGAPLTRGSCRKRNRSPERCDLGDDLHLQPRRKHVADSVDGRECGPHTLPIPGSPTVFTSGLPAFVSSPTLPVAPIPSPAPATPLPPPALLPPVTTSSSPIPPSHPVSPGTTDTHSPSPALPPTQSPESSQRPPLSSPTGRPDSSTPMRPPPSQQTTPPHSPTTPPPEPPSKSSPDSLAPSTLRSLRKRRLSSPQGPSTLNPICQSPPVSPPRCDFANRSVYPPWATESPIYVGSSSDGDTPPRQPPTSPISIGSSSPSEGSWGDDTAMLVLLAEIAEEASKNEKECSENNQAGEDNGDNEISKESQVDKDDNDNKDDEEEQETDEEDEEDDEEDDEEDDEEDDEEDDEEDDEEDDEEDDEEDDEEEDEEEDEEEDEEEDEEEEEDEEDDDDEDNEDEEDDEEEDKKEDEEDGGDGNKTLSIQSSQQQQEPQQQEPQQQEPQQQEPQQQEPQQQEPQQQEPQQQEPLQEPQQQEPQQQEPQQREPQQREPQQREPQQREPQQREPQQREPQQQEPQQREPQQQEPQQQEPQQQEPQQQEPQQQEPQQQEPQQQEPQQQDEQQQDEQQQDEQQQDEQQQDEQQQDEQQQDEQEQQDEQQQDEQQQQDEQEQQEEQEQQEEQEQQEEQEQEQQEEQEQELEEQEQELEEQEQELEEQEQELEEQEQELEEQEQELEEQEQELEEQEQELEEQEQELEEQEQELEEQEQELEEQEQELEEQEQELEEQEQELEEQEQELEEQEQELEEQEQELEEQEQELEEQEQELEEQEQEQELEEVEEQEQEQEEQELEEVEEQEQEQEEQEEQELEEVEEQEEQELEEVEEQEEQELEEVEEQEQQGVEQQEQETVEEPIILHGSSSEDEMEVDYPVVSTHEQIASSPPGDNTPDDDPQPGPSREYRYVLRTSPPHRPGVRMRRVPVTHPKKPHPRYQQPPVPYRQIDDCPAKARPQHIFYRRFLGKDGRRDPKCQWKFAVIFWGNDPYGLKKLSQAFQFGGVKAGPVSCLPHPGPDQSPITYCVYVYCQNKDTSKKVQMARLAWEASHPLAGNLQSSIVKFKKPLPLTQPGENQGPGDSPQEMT
Sequence of CAAX prenyl protease 2 (Saccharomyces cerevisiae S288c, UniProt Q03530) (Q03530 whole entry): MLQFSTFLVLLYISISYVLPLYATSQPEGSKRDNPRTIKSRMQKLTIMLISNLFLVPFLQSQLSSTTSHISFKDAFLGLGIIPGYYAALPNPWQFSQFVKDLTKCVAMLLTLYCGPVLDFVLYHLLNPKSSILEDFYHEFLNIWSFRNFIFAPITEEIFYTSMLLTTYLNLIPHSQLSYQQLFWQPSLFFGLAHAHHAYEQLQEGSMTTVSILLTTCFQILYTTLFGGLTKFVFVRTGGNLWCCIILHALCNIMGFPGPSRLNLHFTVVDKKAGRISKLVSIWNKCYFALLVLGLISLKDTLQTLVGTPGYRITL
Sequence of ATP-dependent molecular chaperone HSP82 (C4YTQ8 whole entry): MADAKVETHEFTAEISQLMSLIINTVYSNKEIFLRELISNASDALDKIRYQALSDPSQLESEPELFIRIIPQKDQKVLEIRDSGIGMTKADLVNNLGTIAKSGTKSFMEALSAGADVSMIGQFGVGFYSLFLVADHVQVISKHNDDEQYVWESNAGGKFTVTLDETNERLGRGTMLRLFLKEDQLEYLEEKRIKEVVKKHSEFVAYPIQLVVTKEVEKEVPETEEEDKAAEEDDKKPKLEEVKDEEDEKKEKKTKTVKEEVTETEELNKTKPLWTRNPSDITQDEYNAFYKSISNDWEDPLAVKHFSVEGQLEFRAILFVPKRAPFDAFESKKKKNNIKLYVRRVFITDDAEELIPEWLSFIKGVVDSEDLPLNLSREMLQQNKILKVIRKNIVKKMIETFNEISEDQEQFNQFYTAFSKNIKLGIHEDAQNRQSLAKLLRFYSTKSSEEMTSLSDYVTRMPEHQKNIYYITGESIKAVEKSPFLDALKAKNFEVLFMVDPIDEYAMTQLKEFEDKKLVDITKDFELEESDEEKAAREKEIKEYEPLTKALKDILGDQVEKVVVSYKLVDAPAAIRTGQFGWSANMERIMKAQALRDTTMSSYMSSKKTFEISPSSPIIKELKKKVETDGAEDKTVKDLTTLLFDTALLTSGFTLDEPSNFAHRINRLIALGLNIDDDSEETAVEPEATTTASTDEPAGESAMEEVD

COc1ccc(NS(=O)(=O)c2cccc(NC(=O)c3ccc(Cl)nc3)c2)cc1
IC50 (Jurkat [1]): 38.2 µM (inactive) | IC50 [2]: > 80 µM (inactive) | IC50 [3]: 3.21 µM (active)

CCN(CC)c1ccc2cc(S(=O)(=O)c3ccc(C)cc3)c(=O)oc2c1
EC50 [4]: 25.2 µM (active) | EC50 [5]: 0.203 µM (active) | EC50 [6]: > 180 µM (inactive) | AC50 (ORF 73): 18.4 µM (active) | AC50 [7]: 63.4 µM (active) | EC50 [8]: 21.9 µM (active)

COc1ccc(C2c3c(ncn(CCCO)c3=N)Oc3ccc4ccccc4c32)cc1 (centres undefined)
AC50 (CAAX prenyl protease 2 [9]): 5.6 µM (active) | AC50 (CAAX prenyl protease 1): 8.82 µM (active)

CCOC(=O)C1=C(C)OC(N)=C(C#N)C1c1cc2c(cc1[N+](=O)[O-])OCO2 (centres undefined)
IC50 (Prothrombin): 0.915 µM (active) | AC50 (CAAX prenyl protease 1): 5.61 µM (active) | AC50 (CAAX prenyl protease 2 [10]): 13.2 µM (active)

CC(=O)Nc1ccc(/N=C/c2nc(-c3ccc(C)cc3)oc2O)cc1
EC50 [11]: > 300 µM (not active) | EC50 [12]: > 300 µM (inconclusive) | IC50 (Estrogen receptor): 8.2 µM (active) | IC50 (Estrogen receptor beta [13]): > 50 µM (not active) | IC50 (Estrogen receptor beta [14]): 21.6 µM (not active) | EC50 (Troponin, cardiac muscle): 11.6 µM (inactive)

Cc1ccc(C(=O)Nc2cccc(C(F)(F)F)c2)cc1NC(=O)c1ccno1
EC50 [15]: < 0.1 µM (active) | EC50 [16]: 6.47 µM (active) | EC50 [17]: 0.333 µM (active) | EC50 [18]: 0.285 µM (active) | IC50 (Jurkat [1]): > 80 µM (inactive) | IC50 [2]: > 80 µM (inactive)

CCCCC(=O)NC(c1ccc(C)cc1)c1ccc2cccnc2c1O (centres undefined)
IC50 (HEK293 [19]): 26.1 µM (inactive) | IC50 (Jurkat [20]): 2.65 µM (active) | IC50 (HEK293 [21]): 2.78 µM (active)
